In article PMC10186300 (Scientific Reports, 2023):
“And” between values parts separate entries of the source, which are not always exact repeats. Identical values can stand only once. Residues, ends and D or L forms follow the SMILES beside them. *: point of attachment. Dansyl = CN(C)c1cccc2c(S(=O)(=O)*)cccc12

What was measured:
[1] = biological target: T1, PDZ2 domain of ZO1 (Homo sapiens, UniProt Q07157, F207W); experiment: biochemical; assay type: binding; details: pH 7
[2] = biological target: T1, PDZ2 domain of ZO1; experiment: biochemical; assay type: binding

T1 sequence (Q07157 186-264 F207W limits assumed): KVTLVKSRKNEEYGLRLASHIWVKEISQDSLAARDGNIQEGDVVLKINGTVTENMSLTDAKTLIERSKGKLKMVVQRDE

Molecule	koff [1]	Kd [2]	change in fluorescence upon binding (negative control) ([2]; pH 7)
CC(C)C[C@H](NC(=O)[C@H](CC(=O)O)NC(=O)[C@@H]1CCCN1C(=O)[C@@H](NC(=O)[C@H](CCCNC(=N)N)NC(=O)[C@H](CO)NC(=O)[C@H](CO)NC(=O)[C@H](CC(N)=O)NS(=O)(=O)c1cccc2c(N(C)C)cccc12)C(C)C)C(=O)N[C@@H](CC(C)C)C(=O)N[C@H](C(=O)O)C(C)C [SARS-CoV-2 E peptide] (Dansyl-NSSRVPDLLV-OH)	9.5 s⁻¹ and 8.7 ± 0.2 s⁻¹ and 6.8 ± 0.1 s⁻¹ and 9.1 ± 0.2 s⁻¹	15.8 µM and 17.4 µM and 15.2 µM	
ENVGLMQQQK [reference compound]			no change in fluorescence upon binding
CC(C)C[C@H](NC(=O)[C@@H]1CCCN1C(=O)[C@@H]1CCCN1C(=O)[C@H](CCCCN)NC(=O)[C@H](CO)NS(=O)(=O)c1cccc2c(N(C)C)cccc12)C(=O)N1CCC[C@H]1C(=O)N1CCC[C@H]1C(=O)N[C@@H](CC(=O)O)C(=O)N[C@@H](CCC(=O)O)C(=O)N[C@@H](Cc1c[nH]c2ccccc12)C(=O)N[C@H](C(=O)O)C(C)C [MERS-CoV E peptide] (Dansyl-SKPPLPPDEWV-OH)	154 ± 3 s⁻¹	14 ± 1 µM	
CC(C)C[C@H](NC(=O)[C@H](CC(=O)O)NC(=O)[C@@H]1CCCN1C(=O)[C@@H](NC(=O)CNC(=O)[C@H](CCC(=O)O)NC(=O)[C@H](CO)NC(=O)[C@H](CO)NC(=O)[C@H](CC(N)=O)NS(=O)(=O)c1cccc2c(N(C)C)cccc12)C(C)C)C(=O)N[C@@H](CC(C)C)C(=O)N[C@H](C(=O)O)C(C)C [SARS-CoV E peptide] (Dansyl-NSSEGVPDLLV-OH)	9 s⁻¹ and 7.0 ± 0.1 s⁻¹ and 6.9 ± 0.1 s⁻¹ and 6.2 ± 0.1 s⁻¹	4.7 µM and 5 µM and 8.6 µM	
